Laboratory results taken from patent US20230265116A1, “DEGRADATION OF (EGFR) BY CONJUGATION OF EGFR INHIBITORS WITH E3 LIGASE LIGAND AND METHODS OF USE” (BEIGENE, LTD., priority 2020, published 2023).
Read-outs that look alike come from different tables or passages of the source.

Legend:
[1] = biological target: T1, EGFR L858R/T790M/C797S (BaF3-LTC cells) (Homo sapiens, UniProt P00533, C797S/L858R/T790M); experiment: EGFR degradation HTRF assay, BaF3-LTC cells; assay type: cell-based
T1 construct: expressed in transfected cells; host or cells: BaF3
Outline: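 Cells treated 16 h at 37 °C, 5% CO2 in medium with 0.2% DMSO; top final concentration 10 uM, 5-fold dilution, 8 doses. Lysates read by HTRF (665/620 nm); degradation % versus DMSO high control, DC50 from four-parameter fit, Dmax as maximal degradation.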

[2] = tested on: EGFR Del19/T790M/C797S (H1975-clone #28); experiment: EGFR degradation HTRF assay, H1975-clone #28 DTC cells; assay type: cell-based
Outline: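 Compounds (top 10 uM, 5-fold, 8 points, 0.2% DMSO) incubated 16 h at 37 °C on homozygous clones: #23 Del19/C797S, #28 Del19/T790M/C797S, exogenous EGFR only in H1975. HTRF on lysates quantified remaining EGFR relative to DMSO; four-parameter fit gave DC50 and Dmax.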

[3] = BaF3-LTC cells; EGFR degradation, IC50 (DC50) from curve fit; read-out: DC50(nM) BaF3-LTC
[4] = H1975 # 28 DTC cells; EGFR degradation, IC50 (DC50) from curve fit; read-out: DC50(nM) H1975 # 28 DTC
[5] = H1975 # 28 DTC cells; maximum percentage of inhibition (degradation)
[6] = BaF3-LTC cells; maximum percentage of inhibition (degradation); read-out: Dmax (%) BaF3-LTC

T1 sequence (P00533 25-1210 T790M/C797S/L858R): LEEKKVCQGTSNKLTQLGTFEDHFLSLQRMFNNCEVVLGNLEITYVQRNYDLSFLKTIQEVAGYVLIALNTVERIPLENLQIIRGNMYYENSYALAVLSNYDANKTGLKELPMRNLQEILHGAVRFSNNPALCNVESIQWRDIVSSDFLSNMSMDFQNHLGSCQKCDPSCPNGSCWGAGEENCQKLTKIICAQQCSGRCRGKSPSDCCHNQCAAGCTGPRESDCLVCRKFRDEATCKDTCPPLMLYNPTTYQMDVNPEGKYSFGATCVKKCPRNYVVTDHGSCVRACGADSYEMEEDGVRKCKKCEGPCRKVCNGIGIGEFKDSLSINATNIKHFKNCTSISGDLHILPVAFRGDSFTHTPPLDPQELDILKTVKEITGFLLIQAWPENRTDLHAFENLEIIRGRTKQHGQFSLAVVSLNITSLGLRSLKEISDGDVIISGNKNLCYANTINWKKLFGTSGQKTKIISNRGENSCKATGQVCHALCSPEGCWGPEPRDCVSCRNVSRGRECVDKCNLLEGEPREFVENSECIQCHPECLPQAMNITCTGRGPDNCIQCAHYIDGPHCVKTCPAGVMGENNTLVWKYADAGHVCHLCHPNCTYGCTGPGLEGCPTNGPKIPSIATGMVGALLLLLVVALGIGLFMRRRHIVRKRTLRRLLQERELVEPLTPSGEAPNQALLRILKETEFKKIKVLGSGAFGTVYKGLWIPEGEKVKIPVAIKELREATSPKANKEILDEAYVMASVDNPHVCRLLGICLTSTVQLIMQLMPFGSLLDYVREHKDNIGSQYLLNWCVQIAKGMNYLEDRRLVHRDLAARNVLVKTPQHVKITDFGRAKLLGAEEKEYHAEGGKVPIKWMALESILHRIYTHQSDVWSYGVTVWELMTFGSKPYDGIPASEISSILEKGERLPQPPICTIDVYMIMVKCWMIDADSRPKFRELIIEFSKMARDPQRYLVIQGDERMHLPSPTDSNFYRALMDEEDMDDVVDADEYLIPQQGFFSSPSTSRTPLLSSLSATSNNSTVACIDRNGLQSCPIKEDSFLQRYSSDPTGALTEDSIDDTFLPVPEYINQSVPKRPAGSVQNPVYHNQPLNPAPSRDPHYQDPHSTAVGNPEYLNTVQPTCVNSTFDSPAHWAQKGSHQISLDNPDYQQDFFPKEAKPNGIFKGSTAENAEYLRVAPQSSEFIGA

Row | Structure (SMILES) | DC50 [1, 3] [nM] | DC50 [2, 4] [nM] | Dmax [1, 6] [%] | Dmax (%) H1975 # 28 DTC [2, 5] [%] | DC50 ([1]; read-out: DC50(nM) BaF3-LTC; BaF3-LTC cells; EGFR degradation, IC50 (DC50) from curve fit) [nM] | Dmax ([1]; read-out: Dmax (%) BaF3-LTC, BaF3-LTC cells; maximum percentage of inhibition (degradation)) [%] | DC50 ([2]; read-out: DC50(nM) H1975 # 28 DTC; H1975 # 28 DTC cells; EGFR degradation, IC50 (DC50) from curve fit) [nM]
1 | CCOc1cc(N2CCC(N3CCN(CC4CN(c5cc(F)c([C@H]6CCC(=O)NC6=O)c(F)c5)C4)CC3)CC2)c(CC)cc1Nc1ncc(Br)c(Nc2ccc3nc(CC)ccc3c2P(C)(C)=O)n1 [Example 541, (R)-3-(4-(3-((4-(1-(4-((5-bromo-4-((5-(dimethylphosphoryl)-2-ethylquinolin-6-yl)amino)pyrimidin-2-yl)amino)-5-ethoxy-2-ethylphenyl)piperidin-4-yl)piperazin-1-yl)methyl)azetidin-1-yl)2,6-difluorophenyl)piperidine-2,6-dione] | 17.8 | 2.08 | – | 88.77 | – | – | –
2 | COc1cc(N2CCC3(CCN(CCCCCOc4cccc5c4CN(C4CCC(=O)NC4=O)C5=O)CC3)CC2)c(C)cc1Nc1ncc(Br)c(Nc2ccc3nccnc3c2P(C)(C)=O)n1 (stereo not shown) [Example 542, 3-(4-((5-(9-(4-((5-bromo-4-((5-(dimethylphosphoryl)quinoxalin-6-yl)amino)pyrimidin-2-yl)amino)-5-methoxy-2-methylphenyl)-3,9-diazaspiro[5.5]undecan-3-yl)pentyl)oxy)-1-oxoisoindolin-2-yl)piperidine-2,6-dione] | 11.2 | 0.75 | – | 45.37 | – | – | –
3 | CCc1cc(Nc2ncc(Br)c(Nc3ccc4nc(C)ccc4c3P(C)(C)=O)n2)c(OC2CC2)cc1N1CCC(N2CCN(C(=O)[C@@H]3CCN(c4cc(F)c([C@H]5CCC(=O)NC5=O)c(F)c4)C3)CC2)CC1 [Example 544, (R)-3-(4-((R)-3-(4-(1-(4-((5-bromo-4-((5-(dimethylphosphoryl)-2-methylquinolin-6-yl)amino)pyrimidin-2-yl)amino)-5-cyclopropoxy-2-ethylphenyl)piperidin-4-yl)piperazine-1-carbonyl)pyrrolidin-1-yl)-2,6-difluorophenyl)piperidine-2,6-dione] | 12.5 | 1.48 | 90.3 | 81.13 | – | – | –
4 | CCc1ccc2c(P(C)(C)=O)c(Nc3nc(Nc4cc(CC)c(N5CCC(N6CCN(CCc7cc(F)c([C@H]8CCC(=O)NC8=O)c(F)c7)CC6)CC5)cc4OC4CC4)ncc3Br)ccc2n1 [Example 547, (R)-3-(4-(2-(4-(1-(4-((5-bromo-4-((5-(dimethylphosphoryl)-2-ethylquinolin-6-yl)amino)pyrimidin-2-yl)amino)-5-cyclopropoxy-2-ethylphenyl)piperidin-4-yl)piperazin-1-yl)ethyl)-2,6-difluorophenyl)piperidine-2,6-dione] | 4.45 | 0.647 | 89.3 | 87.96 | – | – | –
5 | CCc1cnc2c(P(C)(C)=O)c(Nc3nc(Nc4cc(CC)c(N5CCC(N6CCN(CCc7ccc8c(c7)oc(=O)n8C7CCC(=O)NC7=O)CC6)CC5)cc4OC)ncc3Br)ccc2n1 (stereo not shown) [Example 548, 3-(6-(2-(4-(1-(4-((5-bromo-4-((5-(dimethylphosphoryl)-2-ethylquinoxalin-6-yl)amino)pyrimidin-2-yl)amino)-2-ethyl-5-methoxyphenyl)piperidin-4-yl)piperazin-1-yl)ethyl)-2-oxobenzo[d]oxazol-3(2H)-yl)piperidine-2,6-dione] | – | – | – | 74.38 | 3.63 | 91.8 | 0.696
6 | CCc1ccc2c(P(C)(C)=O)c(Nc3nc(Nc4cc(C5CC5)c(N5CCC(N6CCN(CCc7cc(F)c([C@H]8CCC(=O)NC8=O)c(F)c7)CC6)CC5)cc4OC)ncc3Br)ccc2n1 [Example 550, (R)-3-(4-(2-(4-(1-(4-((5-bromo-4-((5-(dimethylphosphoryl)-2-ethylquinolin-6-yl)amino)pyrimidin-2-yl)amino)-2-cyclopropyl-5-methoxyphenyl)piperidin-4-yl)piperazin-1-yl)ethyl)-2,6-difluorophenyl)piperidine-2,6-dione] | 8.12 | 0.707 | 85.9 | 87.71 | – | – | –
7 | CCOc1cc(N2CCC(N3CCN(C[C@H]4CCN(c5cccc6c5oc(=O)n6C5CCC(=O)NC5=O)C4)CC3)CC2)c(CC)cc1Nc1ncc(Br)c(Nc2ccc3c(=O)n(CC)ncc3c2P(C)(C)=O)n1 (stereo partly drawn) [Example 560, 3-(7-((R)-3-((4-(1-(4-((5-bromo-4-((5-(dimethylphosphoryl)-2-ethyl-1-oxo-1,2-dihydrophthalazin-6-yl)amino)pyrimidin-2-yl)amino)-5-ethoxy-2-ethylphenyl)piperidin-4-yl)piperazin-1-yl)methyl)pyrrolidin-1-yl)-2-oxobenzo[d]oxazol-3(2H)-yl)piperidine-2,6-dione] | 14.1 | 1.36 | 92.3 | 80.68 | – | – | –

Continued, in another order:

Row | DC50 [1, 3] [nM] | DC50 [2, 4] [nM] | Dmax [1, 6] [%] | Structure (SMILES) | Dmax (%) H1975 # 28 DTC [2, 5] [%] | DC50 ([1]; read-out: DC50(nM) BaF3-LTC; BaF3-LTC cells; EGFR degradation, IC50 (DC50) from curve fit) [nM] | Dmax ([1]; read-out: Dmax (%) BaF3-LTC, BaF3-LTC cells; maximum percentage of inhibition (degradation)) [%] | DC50 ([2]; read-out: DC50(nM) H1975 # 28 DTC; H1975 # 28 DTC cells; EGFR degradation, IC50 (DC50) from curve fit) [nM]
8 | 4.35 | 0.367 | 85.7 | CCOc1cc(N2CCC(N3CCN(CCc4ccc5c(c4)oc(=O)n5C4CCC(=O)NC4=O)CC3)CC2)c(C)cc1Nc1ncc(Br)c(Nc2ccc3nc(CC)ccc3c2P(C)(C)=O)n1 (stereo not shown) [Example 552, 3-(6-(2-(4-(1-(4-((5-bromo-4-((5-(dimethylphosphoryl)-2-ethylquinolin-6-yl)amino)pyrimidin-2-yl)amino)-5-ethoxy-2-methylphenyl)piperidin-4-yl)piperazin-1-yl)ethyl)-2-oxobenzo[d]oxazol-3 (2H)-yl)piperidine-2,6-dione] | 71.85 | – | – | –
9 | 2.49 | 0.662 | 91.9 | CCOc1cc(N2CCC(N3CCN(CCc4cc5oc(=O)n(C6CCC(=O)NC6=O)c5cc4C)CC3)CC2)c(CC)cc1Nc1ncc(Br)c(Nc2ccc3c(=O)n(CC)ncc3c2P(C)(C)=O)n1 (stereo not shown) [Example 554, 3-(6-(2-(4-(1-(4-((5-bromo-4-((5-(dimethylphosphoryl)-2-ethyl-1-oxo-1,2-dihydrophthalazin-6-yl)amino)pyrimidin-2-yl)amino)-5-ethoxy-2-ethylphenyl)piperidin-4-yl)piperazin-1-yl)ethyl)-5-methyl-2-oxobenzo[d]oxazol-3(2H)-yl)piperidine-2,6-dione] | 67.4 | – | – | –
10 | 7.36 | 1.89 | 94.5 | CCOc1cc(N2CCC(N3CCN(CCc4ccc5c(oc(=O)n5C5CCC(=O)NC5=O)c4F)CC3)CC2)c(CC)cc1Nc1ncc(Br)c(Nc2ccc3nc(CC)ccc3c2P(C)(C)=O)n1 (stereo not shown) [Example 555, 3-(6-(2-(4-(1-(4-((5-bromo-4-((5-(dimethylphosphoryl)-2-ethylquinolin-6-yl)amino)pyrimidin-2-yl)amino)-5-ethoxy-2-ethylphenyl)piperidin-4-yl)piperazin-1-yl)ethyl)-7-fluoro-2-oxobenzo[d]oxazol-3(2H)-yl)piperidine-2,6-dione] | 77.45 | – | – | –
11 | 14.8 | 4.03 | 92.2 | CCOc1cc(N2CCC(N3CCN(CCC4CCN(c5cc(F)cc6c5oc(=O)n6C5CCC(=O)NC5=O)CC4)CC3)CC2)c(CC)cc1Nc1ncc(Br)c(Nc2ccc3nc(CC)ccc3c2P(C)(C)=O)n1 (stereo not shown) [Example 556, 3-(7-(4-(2-(4-(1-(4-((5-bromo-4-((5-(dimethylphosphoryl)-2-ethylquinolin-6-yl)amino)pyrimidin-2-yl)amino)-5-ethoxy-2-ethylphenyl)piperidin-4-yl)piperazin-1-yl)ethyl)piperidin-1-yl)-5-fluoro-2-oxobenzo[d]oxazol-3(2H)-yl)piperidine-2,6-dione] | 98.64 | – | – | –
12 | 6.8 | 0.773 | 89.1 | CCc1cc(Nc2ncc(Br)c(Nc3ccc4nc(C)ccc4c3P(C)(C)=O)n2)c(OC2CC2)cc1N1CCC(N2CCN(CCc3ccc4c(c3)oc(=O)n4C3CCC(=O)NC3=O)CC2)CC1 (stereo not shown) [Example 557, 3-(6-(2-(4-(1-(4-((5-bromo-4-((5-(dimethylphosphoryl)-2-methylquinolin-6-yl)amino)pyrimidin-2-yl)amino)-5-cyclopropoxy-2-ethylphenyl)piperidin-4-yl)piperazin-1-yl)ethyl)-2-oxobenzo[d]oxazol-3(2H)-yl)piperidine-2,6-dione] | 92.3 | – | – | –
13 | 13.1 | 2.59 | – | CCOc1cc(N2CCC(N3CCN(CCc4c(F)ccc5c4n(CC)c(=O)n5C4CCC(=O)NC4=O)CC3)CC2)c(CC)cc1Nc1ncc(Br)c(Nc2ccc3nc(CC)ccc3c2P(C)(C)=O)n1 (stereo not shown) [Example 558, 3-(4-(2-(4-(1-(4-((5-bromo-4-((5-(dimethylphosphoryl)-2-ethylquinolin-6-yl)amino)pyrimidin-2-yl)amino)-5-ethoxy-2-ethylphenyl)piperidin-4-yl)piperazin-1-yl)ethyl)-3-ethyl-5-fluoro-2-oxo-2,3-dihydro-1H-benzo[d]imidazol-1-yl)piperidine-2,6-dione] | 85.18 | – | – | –
